# Results from patent US20240382520A1, “COMPOSITION FOR PREVENTING AND TREATING CANCER THROUGH MITOCHONDRIAL METABOLISM REGULATION CONTAINING NANOGRAPHENE STRUCTURE” (SEOUL NATIONAL UNIVERSITY R & DB FOUNDATION, priority 2021, published 2024).
# System: colon cancer
# Experiment: Oral administration in colon cancer model induced with Azoxymethane and Dextran sodium sulfate (DSS)
# Assay type: in vivo, mouse
# Method: It was determined whether orally administering the nanographene structure or a modified structure thereof has an effect on cancer occurrence and the mitigation of progression in vivo. Specifically, according to Table 1, rats that were not induced with colon cancer (sham group) and rats that were induced with colon cancer and administered with nanographene oxide (danGO group) were used, and rats that were induced with colon cancer were used as a negative control group (vehicle group), and as a positive control group, rats that were administered with 5-fluorouracil (5-FU), which is an anticancer drug, were prepared. In the negative control group, colon cancer was induced by using Azoxymethane and Dextran sodium sulfate (DSS). In the danGO group which was the experimental group, danGO was orally administered at a dose of 250 μg/mouse 5 times every 3 days to rats that were induced with colon cancer.
# In the same manner as in Example 7-1, the effect of modified nanographene oxide, NGO-NH2, on in vivo cancer occurrence and progression mitigation was confirmed.
# Next, the spleen was separated and the size and weight were measured in order to determine the effect on the degree of systemic inflammation. The spleen is an important lymphoid organ, accounting for about 25% of the body weight of the lymphatic organ. […]
smiles,measurement,setting,value
"O=c1[nH]cc(F)c(=O)[nH]1 [5-FU, 5-fluorouracil]",length of the colon compared to the vehicle group,"Example 7-1, oral, danGO 250 μg/mouse 5 times every 3 days",preserved statistically significantly
same,alleviation of disease (colon length and diameter) compared to the vehicle group,Example 7-2,significantly alleviated
